Converted amounts (≈) assume the structure as drawn. Like-named read-outs stand apart in the source and are kept apart here.
Columns and labels:
[1] = system: biofilms of S. aureus NCTC8325; assay: Biofilm eradication assay; format: cell-based, Staphylococcus aureus; details: 24 hours; FIG. 2
Method: (§1) FIG. 2: The biofilms of S. aureus NCTC8325 (the upper left graph) and MRSA USA300 (the upper right graph) were treated with increasing concentrations of blank control (Mock), DHA, daptomycin (DAP), vancomycin (VAN), SC5005, and SC5005 in combination with DHA for 24 hours. The number of viable bacteria was then determined using a cfu assay. The data represent individual experiments and are shown as the mean±SD (n=3 per group). ns, nonsignificant, p>0.05; *p<0.05; **p<0.01; ***p<0.001. (The lower left graph) the biofilms of MRSA USA300 were treated with blank control (Mock) or SC5005 along with 80 mg/L DHA for 1, 3 or 10 minute(s). The viable bacteria in the biofilms harvested and enumerated using a cfu assay. The data represent independent experiments and are shown as mean±SD (n=3 per group). ns, nonsignificant, p>0.05; *p<0.05; **p<0.01; ***p<0.001 (The lower right graph) RAW264.7 cells were exposed to a blank control (Mock) or increasing concentrations of SC5005 and 80 mg/L DHA for […]. The viability of cells was determined by the MTT assay and expressed as a percentage relative to mock (DMSO and ethanol)-treated cells. The data shown are the mean±SD (n=3 per group).
(§2) The eradication activity of daptomycin, vancomycin, experimental acyl compounds and experimental acyl compounds along with fatty acids against biofilms of microorganisms was evaluated as described above. Briefly, bacteria were grown in tryptic soy broth (Becton Dickinson, USA) and biofilms were formed on the pegs of the lid of a 96-well dish immersed in bacterial cultures at 5×10^5 cfu/mL. […] After incubation at 37° C. for 24 hours, the peg-lids were washed and placed onto a new 96-well plate with fresh CAMHB in each well and sonicated for 5 minutes to disrupt the biofilm on the pegs, followed by a cfu assay to assess the number of viable bacteria in each well. To determine the minimum biofilm removal concentration, the 96-well plates were covered with new lids and incubated at 37° C. for 24 hours, and then the viable bacteria in each well were counted using the cfu assay.

[2] = system: biofilms of MRSA USA300; assay: Biofilm eradication assay; format: cell-based, Staphylococcus aureus
Method: as §1, §2

[3] = system: VRSA SJC1200; assay: Antibacterial activity assay (MIC, broth microdilution); format: cell-based, Staphylococcus aureus; details: for MIC: Staphylococcus aureus, VRSA
[4] = system: S. aureus ATCC29213; assay: as above; format: cell-based, Staphylococcus aureus; details: for MIC: Staphylococcus aureus
[5] = system: Staphylococcus aureus NCTC8325; assay: Time-kill kinetics (cfu assay); format: cell-based; details: SC5005 4×MIC, 1 mg/L; FIG. 1
Method: The number of viable bacteria in broth after each exposure period was enumerated by a cfu assay and expressed as cfu/mL; the data shown are the mean±SD (standard deviation) of independent experiments. […] The number of viable bacteria in the broth after each exposure period was calculated by a cfu assay (cfu/mL); the data are shown as the mean±SD of three independent experiments (n=3 for each group). Since the standard deviation of each point is very small, the error line is not shown in each graph. The horizontal dashed line in the upper left graph and the upper right graph represents […] of the bacterial cells killed. In addition, the blank controls in FIG. 1 are shown as filled diamonds.
In this experiment, the inventor analyzed the time-kill kinetics of SC5005, DHA, and a combination thereof against Staphylococcus aureus NCTC8325 and MRSA USA300, and the results are shown in FIG. 1. It can be seen in FIG. 1 that SC5005 killed more than 99.9% of the bacteria within 24 hours. […] Besides, it is well known in the art that Staphylococcus aureus can enter a dormant state (i.e., become the so-called persister cells) and develop resistance to antibiotic treatment, thus leading to repeated bacterial infections.

[6] = Antiproliferation assay (MTT); format: cell-based, murine; details: mouse, RAW264.7 macrophage cells, read-out: CC50 of SC5005
Method: as §1
The murine macrophage cell line RAW264.7 (BCRC) and human cervical epithelioid carcinoma cell line HeLa (BCRC) were maintained in Dulbecco's modified Eagle's medium (DMEM; Gibco-BRL) supplemented with 10% heat-inactivated FBS (Gibco-BRL). The human embryonic kidney cell line HEK-293 (BCRC) and the immortalized nontumorigenic keratinocyte cell line HaCaT (obtained from Dr. Yung-Chiy Chang, National Taiwan University, Taiwan) were maintained in Roswell Park Memorial Institute (RPMI; Gibco-BRL) medium supplemented with 10% heat-inactivated FBS. Cells were cultured in T-75 flasks at 37° C. in a 5% CO2 atmosphere.
The effects of SC5005 and DHA on the viability of mammalian cells were assessed using a 3-(4,5-dimethylthiazol-2-yl)-2,5-diphenyl-2H-tetrazolium bromide (MTT) assay in six replicates per treatment group. Briefly, cells were seeded into 96-well, flat-bottomed plates at 10^4 cells/well, cultured for 24 hours, and then exposed to SC5005 at concentrations ranging from 5-30 mg/L or the combination of SC5005 with designated concentrations of DHA for 24 hours. Controls were treated with DMSO and ethanol vehicles at concentrations equal to those for drug-treated cells. At the end of treatments, the medium was replaced with 0.5 g/L MTT-containing culture medium, and the cells were incubated in a CO2 incubator at 37° C. for an additional 1.5 hours. Supernatants were removed from the wells, and the reduced MTT dye was solubilized in DMSO followed by measuring the absorbance at 570 nm of each well using a VersaMax microplate reader (Molecular Devices, USA).

- MIC ([3]; +8 mg/L DHA): 0.0019 ng/mL (≈ 0.00364 nM)
- MIC ([3]; agent alone): 250 ng/mL (≈ 479 nM)
- MIC ([4]; ATCC29213, +8 mg/L DHA): 0.0039 µg/mL (≈ 7.48 nM)
- MIC ([4]; ATCC29213, agent alone): 0.25 µg/mL (≈ 479 nM)
Compound: O=C(Nc1ccc(Cl)c(C(F)(F)F)c1)C(CCCl)C(=O)Nc1ccc(Cl)c(C(F)(F)F)c1 [SC5005]
- biofilm removing activity (in words) [1]: superior biofilm removing activity in comparison with daptomycin and vancomycin
- biofilm removing activity (in words) ([2]; 24 hours, FIG. 2): superior biofilm removing activity in comparison with daptomycin and vancomycin
- increase of the biofilm removing activity of SC5005 ([2]; DHA concentration 80 mg/L, strain not given): 32 times
- combination effect ([3]; MIC, +8 mg/L DHA): (Syn) (Synergy (Syn) was defined as an FICI≤0.5)
- combination effect ([4]; MIC, +8 mg/L DHA): (Syn) (Synergy (Syn) was defined as an FICI≤0.5)
- bacteria killed within 24 hours [5]: more than 99.9%
- CC50 at 24 h ([6]; DHA 0 mg/L): 19.5 ± 0.6 µg/mL
- CC50 at 24 h ([6]; DHA 4 mg/L): 22.6 ± 0.8 µg/mL
- CC50 at 24 h ([6]; DHA 8 mg/L): 19.7 ± 2.5 µg/mL
- CC50 at 24 h ([6]; DHA 16 mg/L): 21.2 ± 2.3 µg/mL

Reference: patent US20260130885A1, “ANTIMICROBIAL COMPOSITIONS, PHARMACEUTICAL COMPOSITIONS AND USE THEREOF” (priority 2022, published 2026)
